Reference: ChEMBL document CHEMBL6096682, “Discovery of D-Ring-Contracted Artemisinin as a Potent Hydrophobic Tag for Targeted Protein Degradation” (J Med Chem, 2025)
Activity calls are given as the source filed them. The rule behind the calls is not given here.

What was measured:
[1] = target: T1, Estrogen receptor (Homo sapiens) (UniProt P03372); experiment: HyT degrader activity at ER-alpha in human MCF7 cells assessed as induction of ER-alpha degradation at 10 uM incubated for 24 hrs by western blot analysis; type: cell-based
T1 sequence (whole entry): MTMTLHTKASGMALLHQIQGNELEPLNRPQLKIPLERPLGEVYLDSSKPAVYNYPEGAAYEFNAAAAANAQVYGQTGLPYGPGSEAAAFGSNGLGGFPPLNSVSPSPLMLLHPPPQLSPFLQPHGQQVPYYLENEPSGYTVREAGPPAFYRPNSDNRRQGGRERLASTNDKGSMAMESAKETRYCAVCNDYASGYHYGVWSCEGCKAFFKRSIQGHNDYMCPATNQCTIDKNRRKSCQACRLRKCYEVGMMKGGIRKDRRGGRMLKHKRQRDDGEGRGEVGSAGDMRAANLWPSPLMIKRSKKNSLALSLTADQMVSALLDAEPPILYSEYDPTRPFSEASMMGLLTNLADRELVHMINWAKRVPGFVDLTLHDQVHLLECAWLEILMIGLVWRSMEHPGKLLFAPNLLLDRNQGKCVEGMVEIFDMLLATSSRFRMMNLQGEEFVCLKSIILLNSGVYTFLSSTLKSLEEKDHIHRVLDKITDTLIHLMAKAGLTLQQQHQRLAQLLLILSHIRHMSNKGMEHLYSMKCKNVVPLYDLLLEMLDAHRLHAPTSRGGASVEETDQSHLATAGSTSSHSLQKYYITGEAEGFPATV

[2] = target: T1, Estrogen receptor (Homo sapiens); experiment: HyT degrader activity at ER-alpha in human MCF7 cells assessed as induction of ER-alpha degradation incubated for 24 hrs by western blot analysis; type: cell-based; conditions: dose 0.01-100 µM
[3] = target: T1, Estrogen receptor (Homo sapiens); experiment: HyT degrader activity at ER-alpha in human T47D cells assessed as induction of ER-alpha degradation by measuring downregulation of ER-alpha level at 1 to 5 uM incubated for 24 hrs by immunoblot analysis; type: cell-based; conditions: dose 1-5 µM
[4] = target: Estrogen receptor beta (Homo sapiens) (UniProt Q92731); experiment: HyT degrader activity at ER-beta in human MCF7 cells assessed as induction of ER-beta degradation by measuring decrease in ER-beta level at 1 to 10 uM incubated for 24 hrs by immunoblot analysis; type: cell-based; conditions: dose 1-10 µM
[5] = target: T1, Estrogen receptor (Homo sapiens); experiment: HyT degrader activity at ER-alpha in human MCF7 cells assessed as induction of ER-alpha degradation by measuring decrease in ER-alpha level at 10 uM pretreated with HSP90 inhibitor, 17-AAG for 2 hrs followed by incubation with compound for 12 hrs by immunoblot analysis; type: cell-based
[6] = tested on: MCF7; experiment: Antiproliferative activity against human MCF7 cells assessed as reduction in cell viability incubated for 48 hrs by MTT assay; type: functional, cell-based; conditions: MCF7, 48 h
[7] = tested on: MCF7; experiment: Antiproliferative activity against human MCF7 cells overexpressing EGFR assessed as reduction in cell viability incubated for 48 hrs by MTT assay; type: functional, cell-based; conditions: MCF7, 48 h
[8] = tested on: MCF7; experiment: Antiproliferative activity against human MCF7 cells overexpressing EGFR assessed as reduction in cell viability incubated for 48 hrs by MTT assay relative to control; type: functional
[9] = tested on: MCF7; experiment: Antiproliferative activity against human MCF7 cells overexpressing ER-alpha Y537S mutant assessed as reduction in cell viability incubated for 48 hrs by MTT assay; type: functional, cell-based; conditions: MCF7, 48 h
[10] = tested on: MCF7; experiment: Antiproliferative activity against human MCF7 cells overexpressing ER-alpha Y537S mutant assessed as reduction in cell viability incubated for 48 hrs by MTT assay relative to control; type: functional
[11] = tested on: MCF7; experiment: Antitumor activity against human MCF7 cells xenografted in Balb/c mouse assessed as inhibition of tumor growth at 5 mg/kg, iv administered every 3 days and measured for 21 days; type: functional; conditions: MCF7, 504 h, time 21 day, read-out: TGI
[12] = tested on: MCF7; experiment: Antitumor activity against human MCF7 cells xenografted in Balb/c mouse assessed as inhibition of tumor growth at 10 mg/kg, iv administered every 3 days and measured for 21 days; type: functional; conditions: MCF7, 504 h, time 21 day, read-out: TGI
[13] = tested on: MCF7; experiment: Antitumor activity against human MCF7 cells xenografted in Balb/c mouse assessed as tumor tissue damage at 10 mg/kg, iv administered every 3 days and measured on day 21 by Hematoxylin-Eosin staining based analysis; type: functional, organism-based; conditions: time 21.0 day
[14] = tested on: Mus musculus; experiment: In vivo induction of ER-alpha degradation in Balb/c mouse xenografted with human MCF7 cells assessed as decrease in ER-alpha expression in tumor at 5 to 10 mg/kg, iv administered every 3 days and measured on day 21 by immunofluorescence analysis; type: functional, organism-based; conditions: dose 5-10 mg/kg, time 21.0 day
[15] = Toxicity in Balb/c mouse xenografted with human MCF7 cells assessed as changes in body weight at 5 to 10 mg/kg, iv administered every 3 days and measured for 21 days; type: organism-based; conditions: in vivo, 504 h, dose 5-10 mg/kg, time 21 day
[16] = Toxicity in Balb/c mouse xenografted with human MCF7 cells assessed as effect on red blood cells count at 5 to 10 mg/kg, iv measured after 24 hrs; type: organism-based; conditions: in vivo, dose 5-10 mg/kg
[17] = Toxicity in Balb/c mouse xenografted with human MCF7 cells assessed as effect on hemoglobin content at 5 to 10 mg/kg, iv measured after 24 hrs; type: organism-based; conditions: in vivo, dose 5-10 mg/kg
[18] = Hepatotoxicity in Balb/c mouse xenografted with human MCF7 cells assessed as effect on ALT level in serum at 5 to 10 mg/kg, iv measured after 24 hrs; type: toxicity, organism-based; conditions: in vivo, dose 5-10 mg/kg
[19] = Toxicity in Balb/c mouse xenografted with human MCF7 cells assessed as effect on hematocrit level at 5 to 10 mg/kg, iv measured after 24 hrs; type: organism-based; conditions: in vivo, dose 5-10 mg/kg
[20] = Toxicity in Balb/c mouse xenografted with human MCF7 cells assessed as effect on spleen morphological changes at 5 to 10 mg/kg, iv measured after 24 hrs by Hematoxylin-Eosin staining based analysis; type: organism-based; conditions: in vivo, dose 5-10 mg/kg

Estrogen receptor beta (Homo sapiens), sequence (Q92731 whole entry): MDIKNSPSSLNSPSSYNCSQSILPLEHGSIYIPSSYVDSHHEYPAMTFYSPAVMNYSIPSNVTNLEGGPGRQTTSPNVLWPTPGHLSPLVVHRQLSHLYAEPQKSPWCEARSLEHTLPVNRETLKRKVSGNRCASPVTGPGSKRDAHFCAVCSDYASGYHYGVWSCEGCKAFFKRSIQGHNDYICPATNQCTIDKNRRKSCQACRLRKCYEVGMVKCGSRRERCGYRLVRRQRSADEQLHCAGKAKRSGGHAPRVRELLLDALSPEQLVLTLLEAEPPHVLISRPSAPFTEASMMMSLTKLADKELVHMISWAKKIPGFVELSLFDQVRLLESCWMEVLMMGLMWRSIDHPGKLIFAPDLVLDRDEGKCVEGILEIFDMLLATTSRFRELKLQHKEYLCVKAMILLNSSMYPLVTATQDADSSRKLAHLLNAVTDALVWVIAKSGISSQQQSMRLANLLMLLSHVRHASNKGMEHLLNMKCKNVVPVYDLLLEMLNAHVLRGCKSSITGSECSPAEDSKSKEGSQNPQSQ

C[C@@H]1CCC2[C@]34OO[C@](C)(CCC13)O[C@@H]4O[C@]2(C)C(=O)NCCCOc1ccc(C(=O)c2c(-c3ccc(O)cc3)sc3cc(O)ccc23)cc1 (stereo not given in full)
Activity [1]: 83.1% | Activity [2]: Dose-dependent-effect | Activity [3]: Active | Activity [4]: Active | Activity [5]: inactive | IC50 [6]: 2.28 µM | IC50 [7]: 4.65 µM | inhibition (INH) [8]: 56.7% | IC50 [9]: 10.9 µM | inhibition (INH) [10]: 63.6% | inhibition in vivo at 5 mg/kg [11]: 93.3% | inhibition in vivo at 10 mg/kg [12]: 112% | Activity [13]: Active | Activity [14]: Active | Activity [15]: Non-toxic | Activity [16]: Non-toxic | Activity [17]: Non-toxic | Activity [18]: Non-toxic | Activity [19]: Non-toxic | Activity [20]: Non-toxic
